Laboratory results as given in patent publication US20160215031A1, “METHOD OF TREATING DISORDERS REQUIRING DESTRUCTION OR REMOVAL OF CELLS” (Nymox Pharnaceutical Corporation, priority 2015, published 2016).
Marks after values point to notes of the source that are not given here.

Legend:
patients with BPH [1] = assay: Intraprostatic injection in patients with BPH: difference from baseline International Prostate Symptom Score (Mean IPSS Improvement); type: in vivo, men
Procedure: (§1) In a study of 978 men, patients with BPH were given an intraprostatic injection of either a) DRUG in phosphate buffered saline pH 7.2 (“PBS”) or b) PBS alone, under double-blind conditions by a urologist in an office setting under ultrasound guidance. Each patient was followed for one year or longer with regular physical examinations, laboratory tests, and evaluations of symptoms. Symptomatic evaluation was measured by the International Prostate Symptom Score (IPSS) which is a quantitative scale used to gauge prostatic symptomatic improvement or worsening. The IPSS quantifies the following: 1) incomplete bladder emptying after urination; 2) frequent urination; 3) stopping and starting during urination; 4) urgent need to urinate; 5) weakness of urinary stream; 6) need to push or strain during urination; 7) need to urinate after going to sleep at night (nocturia). The difference from baseline IPSS was compared in patients who were given DRUG vs patients who received PBS alone. Patients who had no previous history of conventional drug treatment (“treatment naïve”) were compared to patients who had previously failed on other conventional approved drugs such as alpha blockers or 5-alpha reductase inhibitors.
Patients with BPH were given an intraprostatic injection of either a) DRUG in phosphate buffered saline pH 7.2 (“PBS”) or b) PBS alone, under double-blind conditions by a urologist in an office setting under ultrasound guidance. Each patient was followed for one year or longer with regular physical examinations, laboratory tests, and evaluations of symptoms. Symptomatic evaluation was measured by the International Prostate Symptom Score (IPSS) which is a quantitative scale used to gauge prostatic symptomatic improvement or worsening. The IPSS quantifies the following: 1) incomplete bladder emptying after urination; 2) frequent urination; 3) stopping and starting during urination; 4) urgent need to urinate; 5) weakness of urinary stream; 6) need to push or strain during urination; 7) need to urinate after going to sleep at night (nocturia). The difference from baseline IPSS was compared in patients who were given DRUG vs patients who received PBS alone. Patients who had both a) no previous history of conventional drug treatment (“treatment naïve”) and b) their BPH symptoms for <10 years, were compared to patients who had either a) previously failed on other conventional approved drugs such as alpha blockers or 5-alpha reductase inhibitors or b) had their BPH symptoms for >=10 years.
In a study of 978 men, patients with BPH were given an intraprostatic injection of either a) DRUG in phosphate buffered saline pH 7.2 (“PBS”) or b) PBS alone, under double-blind conditions by a urologist in an office setting under ultrasound guidance. Each patient was followed for one year or longer with regular physical examinations, laboratory tests, and evaluations of symptoms. Symptomatic evaluation was measured by the International Prostate Symptom Score (IPSS) which is a quantitative scale used to gauge prostatic symptomatic improvement or worsening. The IPSS quantifies the following: 1) incomplete bladder emptying after urination; 2) frequent urination; 3) stopping and starting during urination; 4) urgent need to urinate; 5) weakness of urinary stream; 6) need to push or strain during urination; 7) need to urinate after going to sleep at night (nocturia). The difference from baseline IPSS at an average of 22 months after treatment was compared in patients who were given DRUG vs patients who received PBS alone. Patients who were followed for only 12 months were imputed a change from 12 months onward equal to the mean of their group. Patients who had no previous history of conventional drug treatment (“treatment naïve”) were compared to patients who had previously failed on other conventional approved drugs such as alpha blockers or 5-alpha reductase inhibitors. […]

patients with BPH [2] = assay: Intraprostatic injection in patients with BPH: proportion of patients worsening by IPSS; type: in vivo, men; parameters: decrease in the proportion of patients worsening over time, compared to the control: concentration or dose not given beside the values
Procedure: as §1
Patients with BPH were given an intraprostatic injection of either a) DRUG in phosphate buffered saline pH 7.2 (“PBS”) or b) PBS alone, under double-blind conditions by a urologist in an office setting under ultrasound guidance. Each patient was followed for one year with regular physical examinations, laboratory tests, and evaluations of symptoms. Symptomatic evaluation was measured by the International Prostate Symptom Score (IPSS) which is a quantitative scale used to gauge prostatic symptomatic improvement or worsening. The IPSS quantifies the following: 1) incomplete bladder emptying after urination; 2) frequent urination; 3) stopping and starting during urination; 4) urgent need to urinate; 5) weakness of urinary stream; 6) need to push or strain during urination; 7) need to urinate after going to sleep at night (nocturia). The difference from baseline IPSS was compared in patients who were given DRUG vs patients who received PBS alone. Previous treatment naive patients who had BPH history <10 years were compared to patients with previous treatment failure and to patients with BPH history >=10 years.

Substance: DRUG: NTP peptide given by intraprostatic injection in PBS pH 7.2; sequence not stated in the examples, probably SEQ ID NO. 66 (IDQQVLSRIKLEIKRCL)
- improvement of patients symptomatic for less than 10 years compared to patients symptomatic for more than 10 years (patients with BPH [1]; 12 months (Example 5)): about 40.9%
- improvement in treatment naive patients compared to the improvement found in treatment failure patients (patients with BPH [1]; 90 days (Example 1)): ~1,700%
- increase in treatment naive patients compared to the improvement found in treatment failure patients (patients with BPH [1]; 90 days (Example 1)): 16.7 fold
- Mean IPSS Improvement (patients with BPH [1]; duration of BPH symptoms <10 years, 12 months after treatment): 6.2*
- Mean IPSS Improvement (patients with BPH [1]; duration of BPH symptoms ≧10 years, 12 months after treatment): 4.4
- improvement compared to previously treated patients receiving the same drug (patients with BPH [1]; naive <10 years vs previously treated with symptoms for more than 10 years, 22 months (Example 4)): about 61.7%
- improvement compared to previously treated patients receiving the same drug (patients with BPH [1]; naive <10 years vs previously treated with symptoms for more than 10 years, 90 days (Example 2)): about 39.7%
- improvement compared to previously treated patients receiving the same drug (patients with BPH [1]; naive <10 years vs previously treated, worded 'symptoms for less than 10 years', 22 months (Example 4)): 48.6%
- improvement compared to previously treated patients receiving the same drug (patients with BPH [1]; naive <10 years vs previously treated, worded 'symptoms for less than 10 years', 90 days (Example 2)): 35.4%
- Mean IPSS Improvement when compared to the control (patients with BPH [1]; naive patients vs PBS, 22 months (Example 3)): about 52.9%
- Mean IPSS Improvement when compared to the control (patients with BPH [1]; naive patients vs PBS, 90 days (Example 1)): about 26.5%
- Mean IPSS Improvement when compared to the control (patients with BPH [1]; naive patients, BPH symptoms <10 years, vs PBS, after 22 months (Example 4)): about 61.7%
- Mean IPSS Improvement (patients with BPH [1]; no previous treatment (treatment naive), 90 days after treatment): 8.6*
- Mean IPSS Improvement (patients with BPH [1]; previous BPH treatment (treatment failure), 90 days after treatment): 6.5
- Mean IPSS Improvement (patients with BPH [1]; treatment failure and duration of BPH symptoms ≧10 years, 22 months after treatment): 3.4
- Mean IPSS Improvement (patients with BPH [1]; treatment failure and duration of BPH symptoms ≧10 years, 90 days after treatment): 6.3
- Mean IPSS Improvement when compared to the control (patients with BPH [1]; treatment failure patients vs PBS, 90 days (Example 1)): about 1.5%
- Mean IPSS Improvement (patients with BPH [1]; treatment failure, 22 months after treatment): 3.7
- Mean IPSS Improvement (patients with BPH [1]; treatment naive and duration of BPH symptoms <10 years, 22 months after treatment): 5.5*
- Mean IPSS Improvement (patients with BPH [1]; treatment naive and duration of BPH symptoms <10 years, 90 days after treatment): 8.8*
- Mean IPSS Improvement (patients with BPH [1]; treatment naive, 22 months after treatment): 5.2*
- improvement in proportion of patients worsening, treatment naive compared to treatment failure patients (patients with BPH [2]; 12 months (Example 6)): 4.15 fold
- reduction of the proportion of patients worsening, treatment naive compared to treatment failure patients (patients with BPH [2]; 12 months (Example 6)): ~420%
- Proportion of patients worsening (patients with BPH [2]; IPSS >0 at 12 months, treatment naive): 0.097*
- decrease in the proportion of patients worsening over time, treatment naive compared to treatment failure patients (patients with BPH [2]; IPSS >0 at one year (Example 7)): about 55.6%
- Proportion of patients worsening (patients with BPH [2]; IPSS >0 at one year, BPH history ≧10 years): .20
- Proportion of patients worsening (patients with BPH [2]; IPSS >0 at one year, treatment naive and BPH symptoms <10 years): .08
- decrease in the proportion of patients worsening over time, treatment naive compared to treatment failure patients (patients with BPH [2]; IPSS >1 at one year (Example 7)): ~50%
- Proportion of patients worsening (patients with BPH [2]; IPSS >1 at one year, BPH history ≧10 years): .13
- Proportion of patients worsening (patients with BPH [2]; IPSS >1 at one year, treatment failure): .12
- Proportion of patients worsening (patients with BPH [2]; IPSS >1 at one year, treatment naive and BPH symptoms <10 years): .06
- decrease in the proportion of patients worsening over time, treatment naive compared to treatment failure patients (patients with BPH [2]; IPSS >2 at one year (Example 7)): ~50%
- Proportion of patients worsening (patients with BPH [2]; IPSS >2 at one year, BPH history ≧10 years): .10
- Proportion of patients worsening (patients with BPH [2]; IPSS >2 at one year, treatment failure): .08
- Proportion of patients worsening (patients with BPH [2]; IPSS >2 at one year, treatment naive and BPH symptoms <10 years): .04***
- decrease in the proportion of patients worsening over time, compared to the control (patients with BPH [2]; history of BPH for more than 10 years, IPSS >0 at one year (Example 7)): about 4.7%
- decrease in the proportion of patients worsening over time, compared to the control (patients with BPH [2]; history of BPH for more than 10 years, IPSS >1 at one year (Example 7)): ~18.8%
- decrease in the proportion of patients worsening over time, compared to the control (patients with BPH [2]; history of BPH for more than 10 years, IPSS >2 at one year (Example 7)): ~16.7%
- decrease in the proportion of patients worsening over time, compared to the control (patients with BPH [2]; naive patients <10 years, IPSS >0 at one year (Example 7)): about 61.9%
- decrease in the proportion of patients worsening over time, compared to the control (patients with BPH [2]; naive patients <10 years, IPSS >1 at one year (Example 7)): ~62.5%
- decrease in the proportion of patients worsening over time, compared to the control (patients with BPH [2]; naive patients <10 years, IPSS >2 at one year (Example 7)): ~66.7%
- decrease in the proportion of patients worsening over time, compared to the control (patients with BPH [2]; naive patients, IPSS >0 at 12 months (Example 6)): about 51.5%
- decrease in the proportion of patients worsening over time, compared to the control (patients with BPH [2]; treatment failure patients, IPSS >0 at 12 months (Example 6)): about 10%
- decrease in the proportion of patients worsening over time, compared to the control (patients with BPH [2]; treatment failure patients, IPSS >0 at one year (Example 7)): about 14.3%
- decrease in the proportion of patients worsening over time, compared to the control (patients with BPH [2]; treatment failure patients, IPSS >1 at one year (Example 7)): ~25%
- decrease in the proportion of patients worsening over time, compared to the control (patients with BPH [2]; treatment failure patients, IPSS >2 at one year (Example 7)): ~33.3%
